From patent US20240277698A1, “METHODS OF USING ALDOSTERONE SYNTHASE INHIBITORS” (CINCOR PHARMA, INC., priority 2021, published 2024)

Experiment: SAD study Part 2: adverse events under low/normal salt diet and 3 mg IV dose
Assay type: in vivo
Description: There were no dose-related increases in the incidence of AEs (Table 15). No severe AEs, SAEs, withdrawals due to AEs, or deaths were reported. A larger proportion of subjects reported AEs during the 3 mg IV dose (75%) compared to any of the oral doses (maximum of 66.7% with 3 mg during the low salt diet and with 10 mg during both the low and normal salt diet). Overall, the most frequently reported AEs were nasopharyngitis, asthenia, and dizziness. AEs reported by >1 subject at any dose level and with either salt diet were asthenia (2 subjects [33.3%] with 10 mg low salt diet, 2 subjects [33.3%] with placebo low salt diet), nasopharyngitis (3 subjects [37.5%] with 3 mg IV, 2 subjects [33.3%] with 10 mg low salt diet), dizziness (2 subjects [33.3%] with 3 mg low salt diet) and gingival pain (2 subjects [33.3%] with 10 mg low salt diet). Only 1 AE (dizziness) reported by a subject receiving 10 mg (R)-compound 1 under normal salt diet conditions was considered related to the study drug. One case of fractured coccyx and one case of concussion (both reported for subjects who received the IV dose) were moderate in intensity and all other AEs were mild in intensity. […]

CCC(=O)N[C@@H]1CCCc2c(-c3ccc4c(c3)CCC(=O)N4C)cncc21 [(R)-Compound 1, (R)—N-(4-(1-methyl-2-oxo-1,2,3,4-tetrahydroquinolin-6-yl)-5,6,7,8-tetrahydroisoquinolin-8-yl)propionamide]
Any AE, % of subjects (1 mg, low salt diet, N = 6): (33.3) % | Any AE, number of subjects (1 mg, low salt diet, N = 6): 2 | Related AE, number of subjects (1 mg, low salt diet, N = 6): 0 | Any AE, % of subjects (1 mg, normal salt diet, N = 6): (50.0) % | Any AE, number of subjects (1 mg, normal salt diet, N = 6): 3 | Related AE, number of subjects (1 mg, normal salt diet, N = 6): 0 | proportion of subjects reporting AEs (3 mg IV dose): 75% | Any AE, % of subjects (3 mg IV, N = 8): (75.0) % | Any AE, number of subjects (3 mg IV, N = 8): 6 | Related AE, number of subjects (3 mg IV, N = 8): 0 | proportion of subjects reporting AEs, maximum of the oral doses (3 mg low salt diet, 10 mg low and normal salt diet): ≤ 66.7% | Any AE, % of subjects (3 mg, low salt diet, N = 6): (66.7) % | Any AE, number of subjects (3 mg, low salt diet, N = 6): 4 | Related AE, number of subjects (3 mg, low salt diet, N = 6): 0 | Any AE, % of subjects (3 mg, normal salt diet, N = 6): (33.3) % | Any AE, number of subjects (3 mg, normal salt diet, N = 6): 2 | Related AE, number of subjects (3 mg, normal salt diet, N = 6): 0 | AEs considered related to the study drug (dizziness) (10 mg normal salt diet): 1 AE | Any AE, % of subjects (10 mg, low salt diet, N = 6): (66.7) % | Any AE, number of subjects (10 mg, low salt diet, N = 6): 4 | Related AE, number of subjects (10 mg, low salt diet, N = 6): 0 | Any AE, % of subjects (10 mg, normal salt diet, N = 6): (66.7) % | Any AE, number of subjects (10 mg, normal salt diet, N = 6): 4 | Related AE, % of subjects (10 mg, normal salt diet, N = 6): (16.7) % | Related AE, number of subjects (10 mg, normal salt diet, N = 6): 1
